Data reported in US20200113913A1, “METHODS FOR HAIR FOLLICLE STEM CELL PROLIFERATION” (Frequency Therapeutics, Inc., priority 2017, published 2020).
“Also recorded” adds a separate entry of the source.

Experiments:
GSK3-alpha = GSK3-alpha (Homo sapiens, UniProt P49840); conditions: cited from earlier work
GSK3-beta = GSK3-beta (Homo sapiens, UniProt P49841); conditions: cited from earlier work
[1] = system: Dermal Papilla (DP) cells; assay: Stem Cell Proliferation Assay using dermal papilla; type: cell-based; conditions: Purmorphamine 1 μM; for Alkaline Phosphatase (Alp) colonies: Example 4, FIG. 4
Method: Dermal Papilla (DP) proliferation cell culture assay refers to a cell culture method to quantify the number of Dermal Papilla (DP) spheroids, size of DP spheroids, or number of DP cells in cell culture, which is measured at the end of the assay. DP cells refer to cells that express Alkaline Phosphatase (AP), and/or Versican, and/or Vimentin, and/or Sox2, and/or CD133.
The protocol for the Stem Cell Proliferation Assay using dermal papilla is as follows:
Basal media: DMEM/high-glucose medium and F12, supplemented with N2 1×, B27 1×, Streptomycin sulfate (100 μg/ml), Amphotericin B ([…]), and 1 mM Hepes.
Microdissection is used to remove intact hair follicles from a specimen. Intact follicles are incubated for 40 min at 37° C. in TrypLE™ (Thermo Fisher Scientific) with 1 mg/ml collagenase type 1 (sterilized using 0.2 μm syringe filter). The treated follicles are then triturated >30× using a 200 μl pipette tip. The volume is adjusted up to 1 ml with 1×PBS. The treated follicles are then passed through a 40 μm cell strainer to obtain a single cell suspension.
Twenty μl are applied to a cell counter to determine the number of cells per 1 ml. The remaining cell suspension is spun down at 1,000×g for 5 min at 4° C.
Standard media is prepared supplemented with growth factors (IGF, EGF, and FGF2 at 50 ng/ml). The cells are suspended in standard media with growth factors at 120,000 cells/ml and 250 μl (30,000 cells) are applied to each well of a 24-well plate (Corning Costar, 3534).
Each treatment condition is prepared at 2× concentration, enough for 250 μl/well for a final dilution of 1× in 500 μl. The final DMSO concentration is at about 0.2% for all.
250 μl 2× treatment media is applied to each well to have a final media volume per well of 500 μl. The final treatment concentration per well is 1×. The final cell density is 30,000 cells per well. […]
EVOS® transmitted light images are taken at 0, 5, 7, and 10 days in culture.
Spheroids are collected at 10 days in culture for immunoblotting, qPCR, or flow cytometry. Alternatively, spheroids may be applied to glass bottom dishes coated with poly-1-lysine for alkaline phosphatase (AP) staining, 5-ethynyl-2′-deoxyuridine (EdU) staining, and/or immunofluorescence for DP markers (e.g. Vimentin, Sox2, Versican, CD133) for microscopy.
Alternatively, cells or colonies may be assessed using microscopy to compare DP properties across conditions.

[2] = Example 1, FIG. 1, 8 days in culture, CHIR99021 4 μM, alone or combined
[3] = Example 2, FIG. 2, 10 days in culture, Compound I-7 10 nM, alone or combined
[4] = 10 days in culture, Compound I-7 10 nM, alone or combined
[5] = Example 3, FIG. 3, SAG 3 nM, SAG HCl 500 nM, alone or with Compound I-7 10 nM

Sequence of GSK3-alpha (P49840 whole entry, species assumed): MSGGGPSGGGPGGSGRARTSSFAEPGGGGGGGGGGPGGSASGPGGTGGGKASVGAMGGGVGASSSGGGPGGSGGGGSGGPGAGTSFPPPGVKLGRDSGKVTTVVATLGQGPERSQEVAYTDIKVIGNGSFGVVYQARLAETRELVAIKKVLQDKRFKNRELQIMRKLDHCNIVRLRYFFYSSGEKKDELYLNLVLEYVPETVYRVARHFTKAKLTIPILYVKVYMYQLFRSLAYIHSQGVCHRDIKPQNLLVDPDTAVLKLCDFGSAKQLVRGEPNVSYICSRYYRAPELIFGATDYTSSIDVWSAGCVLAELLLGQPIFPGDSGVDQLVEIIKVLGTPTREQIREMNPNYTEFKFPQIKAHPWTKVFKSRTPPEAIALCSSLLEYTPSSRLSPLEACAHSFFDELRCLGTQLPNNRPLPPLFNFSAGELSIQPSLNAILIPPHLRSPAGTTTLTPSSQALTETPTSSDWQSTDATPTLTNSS
Sequence of GSK3-beta (P49841 whole entry, species assumed): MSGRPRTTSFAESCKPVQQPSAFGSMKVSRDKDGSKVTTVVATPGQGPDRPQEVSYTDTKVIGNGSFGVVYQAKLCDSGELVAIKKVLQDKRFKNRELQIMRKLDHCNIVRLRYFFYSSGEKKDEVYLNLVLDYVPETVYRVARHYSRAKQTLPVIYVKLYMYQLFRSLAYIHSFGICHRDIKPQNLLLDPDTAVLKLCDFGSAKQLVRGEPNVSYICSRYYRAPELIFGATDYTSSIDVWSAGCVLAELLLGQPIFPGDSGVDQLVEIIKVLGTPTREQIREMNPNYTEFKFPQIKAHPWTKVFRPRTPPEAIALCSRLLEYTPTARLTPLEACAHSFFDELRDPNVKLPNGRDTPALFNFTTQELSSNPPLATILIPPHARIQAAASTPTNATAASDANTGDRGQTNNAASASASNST

SMILES: N#Cc1ccc2[nH]c(O)c(-c3ccc(CN4CCOCC4)cn3)c2c1 [AZD1080]
- Potency in nM GSK3-alpha (GSK3-alpha): 6.9 nM

SMILES: COc1ccccc1[C@@H]1C2=C(CC(C)(C)CC2=O)Nc2n[nH]c(C(F)(F)F)c21 [BRD1172]
- Potency in nM GSK3-alpha (GSK3-alpha): 3 nM
- Potency in nM GSK3-beta (GSK3-beta): 10 nM

SMILES: CC1(C)CC(=O)C2=C(C1)Nc1n[nH]c(C(F)(F)F)c1[C@]2(C)c1ccccc1 [BRD1652]
- Potency in nM GSK3-alpha (GSK3-alpha): 0.4 nM
- Potency in nM GSK3-beta (GSK3-beta): 4 nM

SMILES: Cc1c[nH]c(-c2cnc(NCCNc3ccc(C#N)cn3)nc2-c2ccc(Cl)cc2Cl)n1 [CHIR99021]
- DP colonies by light microscopy [1, 2]: more abundant colonies than FIG. 1A; also recorded: more abundant colonies than DP cells treated in control conditions

SMILES: O=C1NC(=O)C(c2cnc3ccccn23)=C1c1cn2c3c(cc(F)cc13)CN(C(=O)N1CCC(F)(F)CC1)CC2 [Compound I-7, 3-(2-(4,4-difluoropiperidine-1-carbonyl)-9-fluoro-1,2,3,4-tetrahydro-[1,4]diazepino[6,7,1-hi]indol-7-yl)-4-(imidazo[1,2-a]pyridin-3-yl)-1H-pyrrole-2,5-dione]
- DP colonies by light microscopy [1, 3]: more abundant colonies than FIG. 2A; also recorded: more abundant colonies than DP cells treated in control conditions
- Alkaline Phosphatase (Alp) colonies [1, 4]: small Alp colonies; also recorded: few Alp colonies

SMILES: Cc1ccc(C(=O)Nc2c[nH]nc2C(=O)NCCCOC(C)C)cn1 [GSK-3b XXII]
- Potency in nM GSK3-alpha (GSK3-alpha): 2.3 nM

SMILES: c1ccc2c(Oc3nc(Nc4ccc(N5CCOCC5)cc4)c4ncn(C5CCCCC5)c4n3)cccc2c1 [Purmorphamine]
- DP colonies by light microscopy [1, 2]: slightly larger and more abundant colonies than FIG. 1A; also recorded: slightly larger and more abundant colonies than DP cells treated in control conditions
- DP colonies by light microscopy [1, 3]: slightly larger and more abundant colonies than FIG. 2A; also recorded: slightly larger and more abundant colonies than DP cells treated in control conditions
- DP colonies by light microscopy [1, 5]: form colonies
- Alkaline Phosphatase (Alp) colonies [1, 4]: few Alp colonies

SMILES: CNC1CCC(N(Cc2cccc(-c3ccncc3)c2)C(=O)c2sc3ccccc3c2Cl)CC1 (centres unmarked) [SAG]
- DP colonies by light microscopy [1, 5]: form colonies
